According to PubChem BioAssay (NCI):
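Growth conditions: 96-well plates. Treatment: test compound, 48 hours, 5 concentrations. Analysis: linear interpolation between bracketing concentrations; unreached endpoints set to highest concentration. Here, GI50 denotes the concentration required for 50% inhibition of growth. Definition used: TGI = concentration required for complete inhibition of growth.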

Key:
Assay in all cases: NCI anticancer screen, dose series, 48 h
HL-60(TB) leukemia = test system: HL-60(TB) leukemia
BT-549 breast = test system: BT-549 breast
SW-620 colon = test system: SW-620 colon
K-562 leukemia = test system: K-562 leukemia
SR leukemia = test system: SR leukemia
SF-539 CNS = test system: SF-539 CNS
786-0 renal = test system: 786-0 renal
MOLT-4 leukemia = test system: MOLT-4 leukemia
SNB-19 CNS = test system: SNB-19 CNS
UO-31 renal = test system: UO-31 renal
HOP-92 NSCLC = test system: HOP-92 NSCLC
SNB-75 CNS = test system: SNB-75 CNS
RXF 393 renal = test system: RXF 393 renal
SK-MEL-2 melanoma = test system: SK-MEL-2 melanoma
HOP-62 NSCLC = test system: HOP-62 NSCLC
SK-MEL-5 melanoma = test system: SK-MEL-5 melanoma
UACC-62 melanoma = test system: UACC-62 melanoma

COc1ccc(-c2nc(C(Cl)Cl)nc3cc(-c4ccccc4)nn23)cc1
GI50 (HL-60(TB) leukemia): 1600 nM | TGI (HL-60(TB) leukemia): > 100 µM | GI50 (BT-549 breast): 1920 nM | TGI (BT-549 breast): 5.78 µM | GI50 (SW-620 colon): 1960 nM | TGI (SW-620 colon): > 100 µM | GI50 (K-562 leukemia): 3.06 µM | TGI (K-562 leukemia): > 100 µM | GI50 (SR leukemia): 1870 nM | TGI (SR leukemia): > 100 µM | GI50 (SF-539 CNS): 72.8 µM | TGI (SF-539 CNS): > 100 µM | GI50 (786-0 renal): 10.7 µM | TGI (786-0 renal): 26.9 µM | GI50 (MOLT-4 leukemia): 2750 nM | TGI (MOLT-4 leukemia): > 100 µM | GI50 (SNB-19 CNS): 2810 nM | TGI (SNB-19 CNS): > 100 µM | GI50 (UO-31 renal): > 100 µM | TGI (UO-31 renal): > 100 µM | GI50 (HOP-92 NSCLC): 3.09 µM | TGI (HOP-92 NSCLC): > 100 µM | GI50 (SNB-75 CNS): > 100 µM | TGI (SNB-75 CNS): > 100 µM | GI50 (RXF 393 renal): 1630 nM | TGI (RXF 393 renal): 3.14 µM | GI50 (SK-MEL-2 melanoma): > 100 µM | TGI (SK-MEL-2 melanoma): > 100 µM | GI50 (HOP-62 NSCLC): 2660 nM | TGI (HOP-62 NSCLC): > 100 µM | GI50 (SK-MEL-5 melanoma): > 100 µM | TGI (SK-MEL-5 melanoma): > 100 µM | GI50 (UACC-62 melanoma): > 100 µM | TGI (UACC-62 melanoma): > 100 µM
